The text below walks through data of patent US10648917B2, “Luminescent compositions and applications thereof” (THE PENN STATE RESEARCH FOUNDATION, priority 2015, dated 2020).

The conditions of data set [1]: commercial halide sensors; cited from earlier work.
Data set [2] in a line: Fluorescence spectra, absorbance and quantum yield (spectrofluorometer, integration sphere). It counts as physicochemical. The protocol:
Fluorescence spectra were recorded by a Horiba FluoroMax-4 spectrofluorometer. All polymer and small molecule samples were measured at a concentration of 2% w/w in 1,4-dioxane or DI water and a slit size of 1 nm by 1 nm unless otherwise specified. Quantum yields were also determined on the same spectrofluorometer by using a Quantum-φ integration sphere at the same concentration and slit size with the blank solvent as the reference. ^1H-NMR, ^13C-NMR were performed on a JNM ECS 300 spectrometer using DMSO-d6 or D2O as solvents. Attenuated total reflection Fourier transform infrared (ATR-FTIR) spectra were collected with a Bruker V70 spectrometer using BPLP films. A Shimadzu HPLC-MS system with a Phenomenex Kinetex 2.6u XB-C18 100 mm×2.9 mm column, a SPD M20A PDA detector and a RF-20AXS fluorescence detector (Ex. 360 nm and Em. 430 nm) was used to characterize the structures of fluorophores as well. The mobile phase was a gradient of DI water and acetonitrile with 0-6 min 2% acetonitrile, 6-12 min 2%-30% acetonitrile, and 12-15 min 2% acetonitrile. The flow rate was 0.15 ml/min. Electrospray ionization mass spectroscopy (ESI-MS) was performed with a positive voltage of 4.5 kV and negative mode voltage −4.0 kV and a CDL temperature of 200° C. The analysis of the degradation products of BPLPs were conducted by immersing BPLPs in 1M K2CO3 solution at 37° C. for 24 hours. After degradation, the solutions were neutralized by 1N HCl solution to pH 7 and characterized by HPLC-MS as described above.
(§1) Fluorescence spectra were recorded by a Horiba FluoroMax-4 spectrofluorometer. All samples were measured at a concentration corresponding to an optical density of 0.1 in water and a slit size of 1 nm by 1 nm unless specified. Quantum yields were also determined on same spectrofluorometer by using a Quantum-φ integration sphere at samples' maximum excitation wavelength and at an increment of 0.3 nm. Photostability studies were done by continuously exciting samples at their maximum excitation wavelength and monitoring at the maximum emission wavelength.
(§2) Fluorescence spectra were recorded on a Horiba FluoroMax-4 spectrofluorometer (Horiba Scientific, Edison N.J.). All polymer and samples were characterized at a concentration of 2 wt % in 1,4-dioxane and a slit size of 1 nm by 1 nm unless otherwise specified. The fluorescence properties of small molecule dyes were also measure in 2 wt % DI water solutions at same conditions as polymer solutions. BPLPs were also degraded in 1M K2CO3 solution at 37° C. for 24 hours and then neutralized with 1N HCl solution to pH7. The resulting degradation solutions were subject to further PL characterizations. Quantum yields were also determined on the same spectrofluorometer by using a Quantum-φ integration sphere (Horiba Scientific, Edison N.J.) at the same concentration and slit size with the blank solvent as the reference. Photostability of small molecules and polymers were determined by monitoring the emission intensity decay at their max. Excitation and emission wavelengths over 3 hours of continuous lumination in the spectrofluorometer.
(§3) Absorbance Spectra were recorded on Tecan Infinite M200 Pro UV-vis spectroscopy, and fluorescence spectra were recorded on Horiba FluoroMax-4 fluorospectroscopy at concentrations below 0.1 O.D. unless otherwise indicated. Quantum Yields were measured on the Quantum φ Integrating Sphere accessory to the FluoroMax-4, while lifetime measurements were determined through the Time-Correlation Single Photon Counting (TCSPC) accessory to the FluroMax-4. TCSPC was utilized in conjunction with NanoLED pulsed diode light source with peak excitation wavelength at 352 nm and at 10,000 counts peak preset. Emission was collected at the fluorescence λmax, unless otherwise indicated. For all pH-dependence experiments, sample pH was adjusted with sulfuric acid or sodium hydroxide. For all chloride-dependent quenching experiments, magnesium chloride hexahydrate (Sigma Aldrich) was used.

Data set [3] is described as follows: Photostability under continuous excitation for 3 hours. It counts as physicochemical. Particulars: FIG. 19. The protocol:
as §1, §2
Photostability of CFDs was characterized thereafter, since traditional organic dyes suffer from photobleaching. Various CFDs were tested under their maximum excitation and emission wavelengths for 3 hours, and the photoluminescence was normalized to the initial intensity.

Data set [4] is described as follows: Halide fluorescence quenching (Stern-Volmer). In kind it is physicochemical. The conditions noted are these: compared with CA-Cysteine. The procedure: as §3
When a fluorophore of [F] absorbs light energy, excitation raises a sub-population of [F] to the excited state, [F*], which then rapidly lose energy along radiative relaxation (kr) or non-radiative relaxation (knr) according to equation 7. If a quencher forms a complex with the excited fluorophore, an extra non-radiative component, kq, is added to equation 7 to account for the additional relaxation pathway that is a function of quencher concentration and its association constant.
[formula] Thus the quenching of fluorescence can be quantitatively analyzed by comparing the affected lifetimes. The Stern-Volmer (SV) relationship is used to determine kq, the bimolecular quenching rate constant for the diffusion coefficients of the fluorophore and quencher, by deriving a plot of τ0/τ versus [Q]:
[formula] Thus the linear slope of the SV plot, KSV, measures the efficiency of the quencher. Since sulfuric acid was used to study proton-induced quenching, the pH value was a better indicator of [H^+] due to incomplete dissociation of sulfuric acid at high concentrations. In the case of multiple quenchers, as will be discussed in this paper, equation 7 must include additional kq terms that result in modified form of equation 12 below:
[formula] If the two quenchers are act independently, the quencher of known quenching rate and concentration can be combined into the Y-intercept term in order to determine the quenching rate of the second, unknown quencher. […]
To translate halide quenching into quantitative sensing applications, a modified Stern-Volmer equation (Equation 14) was used to linearize the effects of two quenchers, protons and the halide being studied, on the fluorescence of CA-Cysteine. […]
Since the measured sample fluorescence is quenched by both protons and halides, the unquenched fluorescence, Io, was defined as the fluorescence of the neutral state CA-Cysteine in the absence of additional proton or halide quenchers. As mentioned above, the effects of protolytic equilibria stabilize around pH 2.2, where CA-Cysteine undergoes 99% conversion from the dianion state and is marked by constant fluorescence intensities (FIG. 13). […] Thus we chose the fluorescence intensity at pH 2.2 (in the absence of halides) as the unquenched reference signal, Io. IH,Cl in equation 23 is the sample fluorescence at the pH and halide concentration indicated. […]

For the molecule `CCOC(=O)C[n+]1cccc2cc(OC)ccc21.[Br-]` [MQAE], in data set [1], the “pH dependence of halide quenching” value is “quenched by halides independent of pH”.

On to `O=C(O)c1cc2n(c(=O)c1)CCS2` [CA-Cysteamine], for which, in data set [2] (CFD dyes), the “Shifting (emission shifting with excitation wavelength)” value is “No”. For the same molecule, in data set [2] (Table III), the “Φ (quantum yield)” value amounted to 79.3%, the “λem (maximum emission wavelength)” value is 445 nm, the “λex (maximum excitation wavelength)” value is listed as 365 nm and the “ϵ (extinction coefficiency)” value was 3880 M⁻¹ cm⁻¹. Further, in data set [2] (representative CFDs, Table I), the “Max. Em. Wavelength” value was 445 nm, the “Max. Ex. Wavelength” value turned out to be 365 nm and the “Quantum Yield” value stood at 79.3%. For the same molecule, in data set [3], the photostability entry is “strong photostability”. The halide sensitivity result in data set [4] was “increase sensitivity of all halides across all pH”.

With `CC[n+]1cccc2cc(OC)ccc21.[I-]` [MEQ], the “pH dependence of halide quenching” value in data set [1] was “quenched by halides independent of pH”.

As for `COc1ccc2c(ccc[n+]2CCCS(=O)(=O)[O-])c1` [SPQ], in data set [1], the “pH dependence of halide quenching” value is “quenched by halides independent of pH”.
